Measured values from the supplement of paper PMC10307832.

Experiments:
Assay in all cases: relative viability (nuclei count vs DMSO), 5 days (fraction); higher = more cells survive
MIM1 = compound: CC1=CSC(=NC2CCCCC2)N1/N=C/C3=C(C(=C(C=C3)O)O)O [MIM1]
How it was run: (§1)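 Viability here means nuclei in treated wells divided by nuclei in vehicle wells, reported as the median across plates. Only plates with control CV below 25% and at least one doubling passed. Lung cancer cell lines in 1536-well plates were exposed to five √10-spaced library-drug doses for 5 days and counted from 4× Hoechst images in MetaXpress.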

Saracatinib = compound: CN1CCN(CCOc2cc(OC3CCOCC3)c3c(Nc4c(Cl)ccc5c4OCO5)ncnc3c2)CC1 [Saracatinib]
How it was run: as §1

Nilotinib = compound: Cc1cn(-c2cc(NC(=O)c3ccc(C)c(Nc4nccc(-c5cccnc5)n4)c3)cc(C(F)(F)F)c2)cn1 [Nilotinib]
How it was run: as §1

Lenalidomide = compound: Nc1cccc2c1CN(C1CCC(=O)NC1=O)C2=O [Lenalidomide]
How it was run: as §1

Luminespib = compound: CCNC(=O)c1noc(-c2cc(C(C)C)c(O)cc2O)c1-c1ccc(CN2CCOCC2)cc1 [Luminespib]
How it was run: as §1

| Cell Line | relative viability (MIM1; 0.2 µM) | relative viability (MIM1; 0.6325 µM) | relative viability (MIM1; 2 µM) | relative viability (MIM1; 6.325 µM) | relative viability (MIM1; 20 µM) | relative viability (Saracatinib; 0.02 µM) | relative viability (Saracatinib; 0.2 µM) | relative viability (Saracatinib; 0.6325 µM) | relative viability (Saracatinib; 2 µM) | relative viability (Nilotinib; 0.001 µM) | relative viability (Nilotinib; 0.003162 µM) | relative viability (Nilotinib; 0.01 µM) | relative viability (Nilotinib; 0.03162 µM) | relative viability (Nilotinib; 0.1 µM) | relative viability (Lenalidomide; 0.253 µM) | relative viability (Lenalidomide; 0.8 µM) | relative viability (Lenalidomide; 2.53 µM) | relative viability (Lenalidomide; 8 µM) | relative viability (Luminespib; 0.002 µM) | relative viability (Luminespib; 0.006325 µM) | relative viability (Luminespib; 0.01 µM, anchor plate) | relative viability (Luminespib; 0.02 µM) | relative viability (Luminespib; 0.06325 µM) | relative viability (Luminespib; 0.2 µM) |
| --- | --- | --- | --- | --- | --- | --- | --- | --- | --- | --- | --- | --- | --- | --- | --- | --- | --- | --- | --- | --- | --- | --- | --- | --- |
| LU99A | 0.995 | 0.909 | 0.949 | 0.802 | 0.323 | 0.983 | 0.86 | 0.853 | 0.757 | 0.892 | 1.02 | 0.919 | 0.831 | 0.558 | 0.919 | 0.902 | 1.05 | 0.601 | 1.05 | 0.94 | 0.247 | 0.508 | 0.241 | 0.124 |
| LXF-289 | 1.04 | 0.741 | 1.04 | 0.737 | 0.503 | 0.997 | 0.944 | 1.02 | 1.01 | 0.937 | 1.19 | 1.15 | 0.96 | 0.576 | 0.981 | 1.03 | 1.11 | 1.07 | 0.974 | 0.979 | 0.681 | 1.09 | 0.85 | 0.195 |
| NCI-H23 | 0.99 | 0.52 | 0.798 | 0.523 | 0.209 | 1.12 | 0.794 | 0.988 | 0.739 | 0.963 | 0.899 | 1.15 | 0.668 | 0.74 | 0.922 | 0.91 | 1.18 | 0.764 | 0.953 | 0.932 | 0.22 | 0.663 | 0.13 | 0.141 |
| NCI-H322M | 0.964 | 0.895 | 0.906 | 0.826 | 0.522 | 0.969 | 0.886 | 0.696 | 0.365 | 1.03 | 0.962 |  | 1.06 | 1.05 | 0.97 | 0.953 | 1.02 | 0.918 | 0.921 | 0.883 | 0.918 | 0.764 | 0.426 | 0.318 |
| NCI-H358 | 1.01 | 0.953 | 0.86 | 0.429 | 0.237 | 0.938 | 0.822 | 0.568 | 0.409 | 0.831 | 1.18 | 1.12 | 0.836 | 0.776 | 0.908 | 1.01 | 0.893 | 1.08 | 0.966 | 0.887 | 0.352 | 0.512 | 0.115 | 0.111 |
| NCI-H441 | 1.04 | 0.754 | 0.994 | 0.492 | 0.207 | 0.99 | 0.896 | 1.23 | 0.884 | 0.927 | 1.4 | 1.21 | 0.724 | 0.938 | 0.967 | 0.869 | 1.21 | 0.808 | 0.93 | 1.01 | 0.345 | 0.926 | 0.133 | 0.129 |
| NCI-H460 | 0.988 | 0.994 | 0.827 | 0.45 | 0.124 | 0.998 | 0.82 | 0.976 | 0.877 | 0.924 | 1.21 | 1.12 | 0.78 | 0.857 | 0.984 | 0.956 | 1.04 | 1 | 1.02 | 0.952 | 0.0332 | 0.806 | 0.0356 | 0.0297 |
| NCI-H520 | 1.02 | 1.01 | 1.01 | 0.859 | 0.383 | 1.01 |  | 0.897 | 0.494 | 0.86 |  | 1.21 | 0.896 | 0.949 | 0.918 | 0.917 | 1.14 | 0.784 | 1.05 | 1.02 | 0.235 | 0.547 | 0.163 | 0.157 |
| NCI-H522 | 1.13 | 0.893 | 0.865 | 0.859 | 0.607 | 0.917 | 0.705 | 0.907 | 0.732 |  | 0.974 | 0.996 | 0.89 | 0.722 | 0.896 | 0.816 | 1.07 | 0.886 | 0.945 | 0.935 | 1.16 | 0.73 | 0.617 | 0.391 |
| NCI-H596 | 1.11 | 1.19 | 0.88 | 0.939 | 0.685 | 1.12 | 0.817 | 0.906 | 0.815 | 0.939 | 0.982 | 1.05 | 0.771 | 0.848 | 0.906 | 0.704 | 1.09 | 0.723 | 1.06 | 0.901 | 1.09 | 0.684 | 0.919 | 0.921 |
| NCI-H647 | 0.933 | 0.951 | 0.51 | 0.821 | 0.3 | 0.967 | 0.868 | 0.858 | 0.572 | 0.889 | 1.17 | 1.35 | 0.729 | 0.878 | 0.993 | 0.753 | 1.16 | 0.904 | 0.953 | 0.935 | 0.174 | 0.674 | 0.0941 | 0.092 |
| NCI-H650 | 1.05 | 0.756 | 0.917 | 0.856 | 0.382 | 1.12 | 0.863 | 0.965 | 0.926 | 0.908 | 0.811 | 0.805 | 0.658 | 0.654 | 1.03 |  | 1.21 | 0.845 | 0.95 | 0.843 | 0.812 | 0.692 | 0.538 | 0.124 |
| NCI-H661 | 0.991 | 1.01 | 0.941 | 0.746 | 0.406 | 1.02 | 0.977 | 0.926 | 0.669 | 0.951 | 1.06 | 1.09 | 0.949 | 0.948 | 0.917 | 0.934 | 1.03 | 0.958 | 1.01 | 0.969 | 0.916 | 0.778 | 0.754 | 0.325 |
| NCI-H727 | 0.833 | 0.823 | 0.878 | 0.723 | 0.452 | 0.874 | 0.765 | 0.863 | 0.612 | 0.787 |  | 0.938 | 0.694 | 0.614 | 0.868 | 0.927 | 0.908 | 0.857 | 0.95 | 0.738 | 0.369 | 0.64 | 0.308 | 0.287 |
